Measurements: article PMC9506414, “Novel 2,6,9-Trisubstituted Purines as Potent CDK Inhibitors Alleviating Trastuzumab-Resistance of HER2-Positive Breast Cancers” (Pharmaceuticals, 2022)

How the values were obtained:
Assay in all cases: Kinome-wide inhibition profiling
Format in all cases: biochemical
[1] = molecular target: T1, PRKG1 (Homo sapiens, UniProt Q13976)
T1 construct: purchased Reaction Biology Corp
Description: (§1) In vitro CDK12/cyclinK assays for all compounds and in vitro kinome-wide inhibition profiling of 30d at 10 μM were performed by a CRO company (Reaction Biology Corp., San Diego, CA, USA).

[2] = molecular target: T2, STK33 (Homo sapiens, UniProt Q9BYT3)
T2 construct: purchased Reaction Biology Corp
Description: as §1

[3] = molecular target: T3, PAK4 (Homo sapiens, UniProt O96013)
T3 construct: purchased Reaction Biology Corp
Description: as §1

[4] = molecular target: T4, GRK5 (Homo sapiens, UniProt P34947)
T4 construct: purchased Reaction Biology Corp
Description: as §1

[5] = molecular target: T5, PRKG1b (Homo sapiens, UniProt Q13976)
T5 construct: purchased Reaction Biology Corp
Description: as §1

[6] = molecular target: T6, PKCzeta (Homo sapiens, UniProt Q05513)
T6 construct: purchased Reaction Biology Corp
Description: as §1

[7] = molecular target: T7, TGFBR2 (Homo sapiens, UniProt P37173)
T7 construct: purchased Reaction Biology Corp
Description: as §1

[8] = molecular target: T8, MRCKa (Homo sapiens, UniProt Q5VT25)
T8 construct: purchased Reaction Biology Corp
Description: as §1

[9] = molecular target: T9, TSSK6 (Homo sapiens, UniProt Q9BXA6)
T9 construct: purchased Reaction Biology Corp
Description: as §1

[10] = molecular target: T10, TXK (Homo sapiens, UniProt P42681)
T10 construct: purchased Reaction Biology Corp
Description: as §1

[11] = molecular target: T11, MRCKb (Homo sapiens, UniProt Q9Y5S2)
T11 construct: purchased Reaction Biology Corp
Description: as §1

[12] = molecular target: T12, FMS (Homo sapiens, UniProt P07333)
T12 construct: purchased Reaction Biology Corp
Description: as §1

[13] = molecular target: T13, Haspin (Homo sapiens, UniProt Q8TF76)
T13 construct: purchased Reaction Biology Corp
Description: as §1

[14] = molecular target: T14, VEGFR2 (Homo sapiens, UniProt P35968)
T14 construct: purchased Reaction Biology Corp
Description: as §1

[15] = molecular target: T15, DAPK1 (Homo sapiens, UniProt P53355)
T15 construct: purchased Reaction Biology Corp
Description: as §1

[16] = molecular target: T16, EPHA3 (Homo sapiens, UniProt P29320)
T16 construct: purchased Reaction Biology Corp
Description: as §1

[17] = molecular target: T17, MKK7 (Homo sapiens, UniProt O14733)
T17 construct: purchased Reaction Biology Corp
Description: as §1

[18] = molecular target: T18, MARK2 (Homo sapiens, UniProt Q7KZI7)
T18 construct: purchased Reaction Biology Corp
Description: as §1

[19] = molecular target: T19, IGF1R (Homo sapiens, UniProt P08069)
T19 construct: purchased Reaction Biology Corp
Description: as §1

[20] = molecular target: T20, IRAK1 (Homo sapiens, UniProt P51617)
T20 construct: purchased Reaction Biology Corp
Description: as §1

[21] = molecular target: T21, PCTK2 (Homo sapiens, UniProt Q00537)
T21 construct: purchased Reaction Biology Corp
Description: as §1

[22] = molecular target: T22, PHKg2 (Homo sapiens, UniProt P15735)
T22 construct: purchased Reaction Biology Corp
Description: as §1

[23] = molecular target: T23, ABL1 (Homo sapiens, UniProt P00519)
T23 construct: purchased Reaction Biology Corp
Description: as §1

[24] = molecular target: T24, DMPK (Homo sapiens, UniProt Q09013)
T24 construct: purchased Reaction Biology Corp
Description: as §1

[25] = molecular target: T25, MYLK4 (Homo sapiens, UniProt Q86YV6)
T25 construct: purchased Reaction Biology Corp
Description: as §1

[26] = molecular target: T26, ERK5 (Homo sapiens, UniProt Q13164)
T26 construct: purchased Reaction Biology Corp
Description: as §1

[27] = molecular target: T27, MAP4K5 (Homo sapiens, UniProt Q9Y4K4)
T27 construct: purchased Reaction Biology Corp
Description: as §1

[28] = molecular target: T28, MAPKAPK3 (Homo sapiens, UniProt Q16644)
T28 construct: purchased Reaction Biology Corp
Description: as §1

[29] = molecular target: T29, PDGFRb (Homo sapiens, UniProt P09619)
T29 construct: purchased Reaction Biology Corp
Description: as §1

[30] = molecular target: T30, MAST3 (Homo sapiens, UniProt O60307)
T30 construct: purchased Reaction Biology Corp
Description: as §1

[31] = molecular target: T31, P38-beta (Homo sapiens, UniProt Q15759)
T31 construct: purchased Reaction Biology Corp
Description: as §1

[32] = molecular target: T32, FER (Homo sapiens, UniProt P16591)
T32 construct: purchased Reaction Biology Corp
Description: as §1

[33] = molecular target: T33, MLK2 (Homo sapiens, UniProt Q02779)
T33 construct: purchased Reaction Biology Corp
Description: as §1

[34] = molecular target: T34, FRK (Homo sapiens, UniProt P42685)
T34 construct: purchased Reaction Biology Corp
Description: as §1

[35] = molecular target: T35, EPHA4 (Homo sapiens, UniProt P54764)
T35 construct: purchased Reaction Biology Corp
Description: as §1

[36] = molecular target: T36, TNK1 (Homo sapiens, UniProt Q13470)
T36 construct: purchased Reaction Biology Corp
Description: as §1

[37] = molecular target: T37, RET (Homo sapiens, UniProt P07949)
T37 construct: purchased Reaction Biology Corp
Description: as §1

[38] = molecular target: T38, HCK (Homo sapiens, UniProt P08631)
T38 construct: purchased Reaction Biology Corp
Description: as §1

[39] = molecular target: T39, CLK1 (Homo sapiens, UniProt P49759)
T39 construct: purchased Reaction Biology Corp
Description: as §1

[40] = molecular target: T40, p70S6Kb/RPS6KB2 (Homo sapiens, UniProt Q9UBS0)
T40 construct: purchased Reaction Biology Corp
Description: as §1

[41] = molecular target: T41, SYK (Homo sapiens, UniProt P43405)
T41 construct: purchased Reaction Biology Corp
Description: as §1

[42] = molecular target: T42, ZAP70 (Homo sapiens, UniProt P43403)
T42 construct: purchased Reaction Biology Corp
Description: as §1

[43] = molecular target: T43, MYLK2 (Homo sapiens, UniProt Q9H1R3)
T43 construct: purchased Reaction Biology Corp
Description: as §1

T35 sequence (P54764 20-986): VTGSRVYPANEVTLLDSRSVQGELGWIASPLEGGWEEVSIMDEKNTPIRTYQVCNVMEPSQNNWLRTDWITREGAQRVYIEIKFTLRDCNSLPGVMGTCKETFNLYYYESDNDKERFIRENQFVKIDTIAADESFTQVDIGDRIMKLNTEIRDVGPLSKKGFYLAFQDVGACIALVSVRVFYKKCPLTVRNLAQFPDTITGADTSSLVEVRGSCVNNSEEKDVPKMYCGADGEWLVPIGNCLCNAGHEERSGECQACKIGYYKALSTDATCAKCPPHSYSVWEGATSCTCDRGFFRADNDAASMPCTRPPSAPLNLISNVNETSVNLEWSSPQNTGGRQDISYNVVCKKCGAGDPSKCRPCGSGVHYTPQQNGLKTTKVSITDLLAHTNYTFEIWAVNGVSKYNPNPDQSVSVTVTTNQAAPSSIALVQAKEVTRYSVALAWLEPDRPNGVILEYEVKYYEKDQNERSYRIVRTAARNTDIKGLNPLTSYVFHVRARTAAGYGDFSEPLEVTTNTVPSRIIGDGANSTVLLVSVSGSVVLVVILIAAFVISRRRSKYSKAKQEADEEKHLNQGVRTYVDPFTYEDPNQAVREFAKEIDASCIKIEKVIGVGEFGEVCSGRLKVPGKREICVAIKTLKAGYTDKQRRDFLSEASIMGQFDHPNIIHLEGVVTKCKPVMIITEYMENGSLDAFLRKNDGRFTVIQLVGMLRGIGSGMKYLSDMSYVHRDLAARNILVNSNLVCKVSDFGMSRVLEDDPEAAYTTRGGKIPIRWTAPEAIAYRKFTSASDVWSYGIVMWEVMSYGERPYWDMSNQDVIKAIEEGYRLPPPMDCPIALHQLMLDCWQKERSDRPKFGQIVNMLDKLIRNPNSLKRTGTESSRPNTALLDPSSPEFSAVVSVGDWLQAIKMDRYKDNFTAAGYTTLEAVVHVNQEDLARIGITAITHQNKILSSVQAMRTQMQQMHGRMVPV
T25 sequence (Q86YV6 whole entry): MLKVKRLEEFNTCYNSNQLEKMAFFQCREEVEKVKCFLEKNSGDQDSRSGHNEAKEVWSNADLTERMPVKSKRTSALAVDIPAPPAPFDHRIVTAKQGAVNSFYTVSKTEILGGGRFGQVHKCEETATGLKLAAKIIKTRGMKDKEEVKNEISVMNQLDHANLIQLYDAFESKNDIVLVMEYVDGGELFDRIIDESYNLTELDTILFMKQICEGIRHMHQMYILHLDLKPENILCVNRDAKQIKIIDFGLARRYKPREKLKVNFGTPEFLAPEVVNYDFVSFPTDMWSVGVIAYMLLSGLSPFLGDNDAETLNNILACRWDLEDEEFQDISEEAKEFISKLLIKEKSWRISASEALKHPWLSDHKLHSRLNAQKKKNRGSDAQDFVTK
T22 sequence (P15735 whole entry): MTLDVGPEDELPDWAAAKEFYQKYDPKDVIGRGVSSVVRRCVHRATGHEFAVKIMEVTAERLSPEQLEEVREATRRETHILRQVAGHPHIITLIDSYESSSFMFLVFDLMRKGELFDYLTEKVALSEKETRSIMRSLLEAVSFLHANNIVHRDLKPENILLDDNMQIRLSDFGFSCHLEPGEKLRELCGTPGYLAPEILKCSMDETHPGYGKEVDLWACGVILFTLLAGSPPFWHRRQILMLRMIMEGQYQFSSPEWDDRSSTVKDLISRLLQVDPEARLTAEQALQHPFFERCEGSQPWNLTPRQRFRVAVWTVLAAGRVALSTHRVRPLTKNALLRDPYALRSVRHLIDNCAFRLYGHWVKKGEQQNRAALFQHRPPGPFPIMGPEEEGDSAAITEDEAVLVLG
T40 sequence (Q9UBS0 whole entry): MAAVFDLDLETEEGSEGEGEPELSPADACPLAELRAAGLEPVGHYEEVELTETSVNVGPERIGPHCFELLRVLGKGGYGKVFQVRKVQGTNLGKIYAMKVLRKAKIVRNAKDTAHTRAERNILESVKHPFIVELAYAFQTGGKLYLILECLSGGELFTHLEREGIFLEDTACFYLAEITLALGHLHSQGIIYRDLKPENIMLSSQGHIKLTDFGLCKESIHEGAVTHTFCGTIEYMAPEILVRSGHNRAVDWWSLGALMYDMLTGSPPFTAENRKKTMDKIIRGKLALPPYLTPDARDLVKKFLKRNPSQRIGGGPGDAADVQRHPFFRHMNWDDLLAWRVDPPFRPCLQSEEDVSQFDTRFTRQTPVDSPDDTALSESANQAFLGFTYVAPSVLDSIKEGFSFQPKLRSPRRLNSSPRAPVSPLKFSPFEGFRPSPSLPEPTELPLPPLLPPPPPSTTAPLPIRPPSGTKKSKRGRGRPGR
T6 sequence (Q05513 whole entry): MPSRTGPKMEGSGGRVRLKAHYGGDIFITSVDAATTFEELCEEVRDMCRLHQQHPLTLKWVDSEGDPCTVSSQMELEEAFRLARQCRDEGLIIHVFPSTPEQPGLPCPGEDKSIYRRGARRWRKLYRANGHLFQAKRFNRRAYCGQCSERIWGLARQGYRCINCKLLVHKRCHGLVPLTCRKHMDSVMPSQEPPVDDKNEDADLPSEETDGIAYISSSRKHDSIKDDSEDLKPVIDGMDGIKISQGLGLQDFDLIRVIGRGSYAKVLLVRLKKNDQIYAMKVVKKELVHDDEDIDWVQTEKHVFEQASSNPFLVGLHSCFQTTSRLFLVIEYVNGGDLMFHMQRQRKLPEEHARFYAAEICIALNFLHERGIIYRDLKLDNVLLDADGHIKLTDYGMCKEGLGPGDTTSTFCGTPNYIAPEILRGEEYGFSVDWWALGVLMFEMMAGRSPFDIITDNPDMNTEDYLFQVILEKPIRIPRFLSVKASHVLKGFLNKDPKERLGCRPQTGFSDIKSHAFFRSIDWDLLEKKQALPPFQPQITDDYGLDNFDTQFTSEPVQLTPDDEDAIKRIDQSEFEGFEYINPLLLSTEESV
T12 sequence (P07333 20-972): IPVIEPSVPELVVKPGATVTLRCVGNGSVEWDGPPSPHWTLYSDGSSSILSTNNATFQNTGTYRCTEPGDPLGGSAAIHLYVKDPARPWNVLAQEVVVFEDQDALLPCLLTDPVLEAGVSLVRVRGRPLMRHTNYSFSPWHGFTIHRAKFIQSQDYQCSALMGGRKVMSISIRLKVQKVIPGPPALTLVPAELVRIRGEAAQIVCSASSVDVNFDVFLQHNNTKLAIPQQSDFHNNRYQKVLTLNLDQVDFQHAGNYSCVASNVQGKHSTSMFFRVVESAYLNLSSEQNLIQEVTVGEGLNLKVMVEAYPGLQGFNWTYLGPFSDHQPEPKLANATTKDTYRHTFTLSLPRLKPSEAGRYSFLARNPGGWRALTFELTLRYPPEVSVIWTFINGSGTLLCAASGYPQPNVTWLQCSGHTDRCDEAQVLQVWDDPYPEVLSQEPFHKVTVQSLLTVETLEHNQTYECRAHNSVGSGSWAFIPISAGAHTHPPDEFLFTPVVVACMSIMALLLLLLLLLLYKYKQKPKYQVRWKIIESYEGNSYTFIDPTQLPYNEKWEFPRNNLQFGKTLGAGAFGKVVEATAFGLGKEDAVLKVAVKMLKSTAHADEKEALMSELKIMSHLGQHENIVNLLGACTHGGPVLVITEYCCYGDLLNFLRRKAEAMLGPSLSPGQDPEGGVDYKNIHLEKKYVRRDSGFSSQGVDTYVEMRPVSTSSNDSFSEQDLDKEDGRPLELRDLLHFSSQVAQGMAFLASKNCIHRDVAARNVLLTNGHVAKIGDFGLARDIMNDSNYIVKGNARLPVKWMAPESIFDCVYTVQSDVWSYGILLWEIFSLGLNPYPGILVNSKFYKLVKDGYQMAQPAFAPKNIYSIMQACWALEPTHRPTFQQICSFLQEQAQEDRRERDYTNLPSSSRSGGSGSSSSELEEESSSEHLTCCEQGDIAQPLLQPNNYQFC
T31 sequence (Q15759 whole entry): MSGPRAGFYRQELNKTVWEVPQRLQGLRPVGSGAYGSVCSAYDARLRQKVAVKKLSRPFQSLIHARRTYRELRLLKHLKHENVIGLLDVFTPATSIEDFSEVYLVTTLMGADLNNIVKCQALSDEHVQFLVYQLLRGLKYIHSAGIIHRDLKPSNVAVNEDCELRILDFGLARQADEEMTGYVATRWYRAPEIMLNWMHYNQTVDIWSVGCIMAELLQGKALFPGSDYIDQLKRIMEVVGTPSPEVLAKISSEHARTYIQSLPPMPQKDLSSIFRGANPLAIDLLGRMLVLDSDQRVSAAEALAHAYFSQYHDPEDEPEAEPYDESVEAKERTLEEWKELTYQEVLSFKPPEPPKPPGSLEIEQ
T13 sequence (Q8TF76 whole entry): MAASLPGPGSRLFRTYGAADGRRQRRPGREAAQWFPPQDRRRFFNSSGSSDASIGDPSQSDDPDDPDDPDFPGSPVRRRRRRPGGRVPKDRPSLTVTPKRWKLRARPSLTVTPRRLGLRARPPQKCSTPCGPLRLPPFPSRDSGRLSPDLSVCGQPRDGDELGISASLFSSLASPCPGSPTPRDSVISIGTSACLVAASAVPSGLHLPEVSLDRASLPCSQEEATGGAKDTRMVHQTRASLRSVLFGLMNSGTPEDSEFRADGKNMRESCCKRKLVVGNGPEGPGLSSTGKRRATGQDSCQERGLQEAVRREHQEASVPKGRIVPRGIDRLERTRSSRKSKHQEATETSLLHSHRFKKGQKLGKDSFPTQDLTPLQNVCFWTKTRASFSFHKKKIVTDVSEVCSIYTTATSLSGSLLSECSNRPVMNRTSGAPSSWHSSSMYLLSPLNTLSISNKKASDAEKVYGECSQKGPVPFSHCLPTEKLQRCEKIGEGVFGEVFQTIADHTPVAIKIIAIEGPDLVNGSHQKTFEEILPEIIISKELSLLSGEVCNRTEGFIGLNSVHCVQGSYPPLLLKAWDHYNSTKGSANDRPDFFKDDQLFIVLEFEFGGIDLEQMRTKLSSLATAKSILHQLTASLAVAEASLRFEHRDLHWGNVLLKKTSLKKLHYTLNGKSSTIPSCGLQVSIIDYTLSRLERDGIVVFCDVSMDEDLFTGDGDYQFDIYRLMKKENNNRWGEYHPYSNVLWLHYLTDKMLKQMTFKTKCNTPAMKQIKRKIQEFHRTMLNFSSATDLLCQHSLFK

Structure (SMILES): CCn1cnc2c(NCc3ccc(-c4ccccn4)nc3)nc(-c3ccc(N)nc3)nc21 [Compound 30d, N-([2,2′-Bipyridin]-5-ylmethyl)-2-(6-aminopyridin-3-yl)-9-ethyl-9H-purin-6-amine]
- remaining activity at 10 µM [1]: 108%
- remaining activity at 10 µM [2]: 33.5%
- remaining activity at 10 µM [3]: 12.9%
- remaining activity at 10 µM [4]: 91.5%
- remaining activity at 10 µM [5]: 97.6%
- remaining activity at 10 µM [6]: 90.2%
- remaining activity at 10 µM [7]: 94.5%
- remaining activity at 10 µM [8]: 96.6%
- remaining activity at 10 µM [9]: 86.9%
- remaining activity at 10 µM [10]: 34.9%
- remaining activity at 10 µM [11]: 99.3%
- remaining activity at 10 µM [12]: 35.4%
- remaining activity at 10 µM [13]: 79.4%
- remaining activity at 10 µM [14]: 88.6%
- remaining activity at 10 µM [15]: 99.7%
- remaining activity at 10 µM [16]: 7.8%
- remaining activity at 10 µM [17]: 96.3%
- remaining activity at 10 µM [18]: 74.3%
- remaining activity at 10 µM [19]: 58%
- remaining activity at 10 µM [20]: 79%
- remaining activity at 10 µM [21]: 7.3%
- remaining activity at 10 µM [22]: 56.9%
- remaining activity at 10 µM [23]: 61.2%
- remaining activity at 10 µM [24]: 90.4%
- inhibition at 10 µM [25]: > 95%
- remaining activity at 10 µM [25]: 4.1%
- remaining activity at 10 µM [26]: 97.7%
- remaining activity at 10 µM [27]: 88.3%
- remaining activity at 10 µM [28]: 100%
- remaining activity at 10 µM [29]: 34.7%
- remaining activity at 10 µM [30]: 39.3%
- remaining activity at 10 µM [31]: 64.7%
- remaining activity at 10 µM [32]: 52.3%
- remaining activity at 10 µM [33]: 62.3%
- remaining activity at 10 µM [34]: 43.5%
- inhibition at 10 µM [35]: > 95%
- remaining activity at 10 µM [35]: 3.6%
- remaining activity at 10 µM [36]: 91.3%
- remaining activity at 10 µM [37]: 79.4%
- remaining activity at 10 µM [38]: 46.5%
- remaining activity at 10 µM [39]: 13.7%
- remaining activity at 10 µM [40]: 92.2%
- remaining activity at 10 µM [41]: 48.4%
- remaining activity at 10 µM [42]: 100%
- remaining activity at 10 µM [43]: 60%
